One may read the Papp A→B as how fast a substance crosses the layer from the apical side. Lower therefore signals slow passage. In general, IC50 refers to the concentration that gives 50% inhibition. A word on the logD: it is lipophilicity at a set pH, counting ionised and neutral species. Read a high logD as higher lipophilicity. Usually solubility stands for how much of the substance goes into solution per volume.

A short description of series [1]: Permeability across apical to basolateral side in human Caco2/TC7 cells at 20 uM after 120 mins by UPLC/ESI-MS-MS analysis. Format: ADME, cell-based. The following applies: Caco-2. Background: Passage across Caco-2 layers is used to estimate intestinal permeability.
Series [2] deals with Voltage-gated inwardly rectifying potassium channel KCNH2 (Homo sapiens, UniProt Q12809). Description: Inhibition of recombinant human ERG expressed in CHO cells by patch clamp method. The series is classed as cell-based. In general terms: Patch clamp records ionic current or voltage across a cell membrane.
Series [3] can be described thus: Drug metabolism in Sprague-Dawley rat liver microsomes assessed as CYP450/FMO-mediated oxidative metabolism at 5 uM after 20 mins in presence of NADPH. Format: ADME. The conditions noted are these: read-out: Drug metabolism. A general note: Microsomes from liver hold many membrane-bound enzymes, among them those of drug oxidation.
Series [4] is described as follows: Drug metabolism in human liver microsomes assessed as CYP450/FMO-mediated oxidative metabolism at 5 uM after 20 mins in presence of NADPH. The series is classed as ADME. The following applies: read-out: Drug metabolism.
The next series deals with T1, Cytochrome P450 1A1 (Homo sapiens, UniProt P04798).
T1 sequence (P04798 whole entry): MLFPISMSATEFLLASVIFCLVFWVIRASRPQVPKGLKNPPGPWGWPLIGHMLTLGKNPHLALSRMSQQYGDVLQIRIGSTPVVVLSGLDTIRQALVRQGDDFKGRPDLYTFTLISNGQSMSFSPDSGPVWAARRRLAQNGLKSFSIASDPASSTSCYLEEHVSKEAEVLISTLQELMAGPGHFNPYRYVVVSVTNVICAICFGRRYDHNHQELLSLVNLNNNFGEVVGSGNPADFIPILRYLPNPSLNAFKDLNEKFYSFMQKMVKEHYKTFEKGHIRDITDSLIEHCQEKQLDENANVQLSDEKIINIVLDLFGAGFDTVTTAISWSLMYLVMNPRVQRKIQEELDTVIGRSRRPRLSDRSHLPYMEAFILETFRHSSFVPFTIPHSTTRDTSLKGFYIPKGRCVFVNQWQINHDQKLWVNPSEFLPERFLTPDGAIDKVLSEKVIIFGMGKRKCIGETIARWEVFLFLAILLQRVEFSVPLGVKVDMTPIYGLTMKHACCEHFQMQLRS
The experiment in a line: Induction of CYP1A1 (unknown origin). Format: ADME.

The nature of series [5]: Lipophilicity, log D of the compound at pH 7.4 at 25 degC. Format: physicochemical. The following applies: buffer.
The next series has as its target T2, Cytochrome P450 1A2 (Homo sapiens, UniProt P05177).
T2 sequence (P05177 whole entry): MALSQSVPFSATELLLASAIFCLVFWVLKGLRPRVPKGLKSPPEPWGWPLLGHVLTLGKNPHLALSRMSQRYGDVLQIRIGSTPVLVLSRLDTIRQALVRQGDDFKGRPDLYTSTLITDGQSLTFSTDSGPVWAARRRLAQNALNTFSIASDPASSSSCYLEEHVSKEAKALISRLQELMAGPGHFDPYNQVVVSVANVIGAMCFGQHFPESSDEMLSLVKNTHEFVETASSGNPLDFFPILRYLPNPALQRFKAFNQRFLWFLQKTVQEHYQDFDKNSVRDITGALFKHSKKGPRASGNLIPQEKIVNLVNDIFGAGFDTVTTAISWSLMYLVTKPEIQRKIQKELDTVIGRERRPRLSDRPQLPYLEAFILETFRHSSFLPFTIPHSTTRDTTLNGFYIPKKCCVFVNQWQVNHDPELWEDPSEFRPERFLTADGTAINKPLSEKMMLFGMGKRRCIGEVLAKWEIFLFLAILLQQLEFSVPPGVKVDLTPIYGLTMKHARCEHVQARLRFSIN
Description: Induction of CYP1A2 (unknown origin). Format: ADME.

The target of the next series is Cytochrome P450 3A4 (Homo sapiens, UniProt P08684). Description: Induction of CYP3A4 (unknown origin). The series is classed as ADME.
Series [6] in a line: Intrinsic clearance in human hepatocytes assessed per 10^6 cells. The series is classed as ADME, cell-based, Hepatocyte.
Series [7] can be described thus: Aqueous solubility of the compound at pH 7.4 at 25 degC. Format: physicochemical.
Series [8] is described as follows: Drug metabolism in Swiss CD1 mouse liver microsomes assessed as CYP450/FMO-mediated oxidative metabolism at 5 uM after 20 mins in presence of NADPH. The series is classed as ADME. The conditions noted are these: read-out: Drug metabolism.

Chain of Voltage-gated inwardly rectifying potassium channel KCNH2 (Q12809 whole entry): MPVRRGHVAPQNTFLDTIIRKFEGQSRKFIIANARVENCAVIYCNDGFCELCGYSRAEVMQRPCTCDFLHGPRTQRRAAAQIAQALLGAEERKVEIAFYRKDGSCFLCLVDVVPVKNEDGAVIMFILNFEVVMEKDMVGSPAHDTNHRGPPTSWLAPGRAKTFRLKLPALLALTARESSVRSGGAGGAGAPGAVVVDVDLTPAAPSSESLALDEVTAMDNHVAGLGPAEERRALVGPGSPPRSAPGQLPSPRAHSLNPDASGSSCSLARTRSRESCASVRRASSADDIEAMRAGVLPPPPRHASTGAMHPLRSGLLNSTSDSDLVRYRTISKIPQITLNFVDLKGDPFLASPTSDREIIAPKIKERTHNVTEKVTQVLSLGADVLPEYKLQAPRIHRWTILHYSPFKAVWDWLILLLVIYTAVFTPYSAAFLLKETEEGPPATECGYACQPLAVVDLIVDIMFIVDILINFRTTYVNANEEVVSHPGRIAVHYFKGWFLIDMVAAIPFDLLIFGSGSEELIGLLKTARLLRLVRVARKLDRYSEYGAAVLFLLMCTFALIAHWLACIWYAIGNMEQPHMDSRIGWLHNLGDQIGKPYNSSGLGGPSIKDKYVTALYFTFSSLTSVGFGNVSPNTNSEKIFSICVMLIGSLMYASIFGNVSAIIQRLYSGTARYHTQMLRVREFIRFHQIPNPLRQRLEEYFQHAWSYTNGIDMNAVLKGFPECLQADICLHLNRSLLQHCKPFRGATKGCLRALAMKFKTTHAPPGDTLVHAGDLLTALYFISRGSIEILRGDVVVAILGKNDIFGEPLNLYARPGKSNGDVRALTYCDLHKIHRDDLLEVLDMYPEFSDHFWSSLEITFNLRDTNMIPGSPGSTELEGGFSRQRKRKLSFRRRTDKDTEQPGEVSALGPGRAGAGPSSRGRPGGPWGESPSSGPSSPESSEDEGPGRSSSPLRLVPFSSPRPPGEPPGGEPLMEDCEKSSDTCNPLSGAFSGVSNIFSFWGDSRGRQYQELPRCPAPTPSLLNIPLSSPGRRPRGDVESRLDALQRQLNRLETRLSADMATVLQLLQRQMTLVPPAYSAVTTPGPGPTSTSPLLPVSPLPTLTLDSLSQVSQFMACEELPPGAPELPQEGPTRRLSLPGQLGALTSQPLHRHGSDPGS
Chain of Cytochrome P450 3A4 (P08684 whole entry): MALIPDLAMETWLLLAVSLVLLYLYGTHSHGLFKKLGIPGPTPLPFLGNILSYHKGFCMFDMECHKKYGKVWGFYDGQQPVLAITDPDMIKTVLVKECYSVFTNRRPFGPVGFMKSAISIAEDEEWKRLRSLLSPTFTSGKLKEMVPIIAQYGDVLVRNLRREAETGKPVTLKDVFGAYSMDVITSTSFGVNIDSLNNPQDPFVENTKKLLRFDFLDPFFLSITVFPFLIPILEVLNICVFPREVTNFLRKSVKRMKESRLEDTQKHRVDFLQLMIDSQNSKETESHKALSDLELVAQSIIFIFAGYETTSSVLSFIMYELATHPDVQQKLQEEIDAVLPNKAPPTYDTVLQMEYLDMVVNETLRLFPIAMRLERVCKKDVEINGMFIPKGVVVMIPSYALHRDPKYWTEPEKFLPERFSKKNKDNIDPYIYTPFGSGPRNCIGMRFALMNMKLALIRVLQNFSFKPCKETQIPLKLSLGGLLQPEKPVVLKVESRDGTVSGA

`CC1(C)[C@@H]2CC[C@@]1(C)[C@@H](NC(=O)[C@H](CC1CCCCC1)NS(=O)(=O)N[C@@H](CCCCN)C(=O)O)C2.Cl`: the Papp A→B at 2 h, 20 µM in series [1] was found to be 0.06 ×10⁻⁶ cm/s. Besides, the IC50 in series [2] is over 10 µM. Besides, the metabolised at 20 min, 5 µM in [3] stood at 8%; in [4] it was 21%; in [8] it was 0%. For the same compound, the Activity at Cytochrome P450 1A1, at Cytochrome P450 1A2 and at Cytochrome P450 3A4 was under 10% in each case. Also, in [5], the logD is 2.02. In [6], this compound came in with a CLH of 0.043 mL/h. Further, in [7], the concentration in solution (solubility) came to 457 µg/mL.

(Values after ChEMBL document CHEMBL3860098, “Sulfamide as Zinc Binding Motif in Small Molecule Inhibitors of Activated Thrombin Activatable Fibrinolysis Inhibitor (TAFIa)” (J Med Chem, 2016).)
